Tests used:
[1] = Solubility in aqueous solution; assay type: physicochemical
Source text: The inventors hypothesised that since the hydroxyl functional groups required for activity were not altered when designing the PNNi analogues, they should retain the capacity to potently reduce PNNs.

PNN-HEK293 cells = assay: Immunocytochemistry of PNN formation (WFA) with PNNi analogues; assay type: cell-based, human; conditions: 0.5 mM and 1 mM, 3 days in vitro
Description: To compare the efficacy of PNNi, JD009, and JD013 in reducing PNN formation, immunocytochemistry was conducted using the N-acetylgalactosamine-binding lectin WFA to label PNNs. PNN-HEK293 cells were exposed to 0.5 mM and 1 mM of the compounds for 3 days in vitro. […] Quantification of WFA fluorescence intensity per cell was derived in matched regions of interest (ROI) and normalising overall WFA fluorescence intensity to cell number.

SMILES	solubility relative to PNNi [1]	PNN morphology and expression (WFA fluorescence intensity per cell) (PNN-HEK293 cells)
CN(C)Cc1cc(=O)oc2cc(O)ccc12 [JD009]	increased solubility	altered PNN expression
O=c1cc(CN2CCOCC2)c2ccc(O)cc2o1 [JD013, 7-hydroxy-4-[(morpholin-4-yl)methyl]-2H-1-benzopyran-2-one]	increased solubility	altered PNN expression

Reference: patent US20220380331A1, “TREATMENT OF CONDITIONS OF THE NERVOUS SYSTEM” (priority 2019, published 2022)
